Data as given in ChEMBL document CHEMBL5506064, “Discovery of ITI-333, a Novel Orally Bioavailable Molecule Targeting Multiple Receptors for the Treatment of Pain and Other Disorders” (J Med Chem, 2024).
Calls of active or inactive are those of the source. The calls are words filed in the database; no cut-off is given here.

Assays:
[1] = target: 5-hydroxytryptamine receptor 2A (Homo sapiens) (UniProt P28223); assay: Displacement of [125I]DOI from human 5-HT2A receptor expressed in HEK293 cell membrane assessed as inhibition of radioligand binding at 100 nM incubated for 60 mins by competition binding based scintillation counter analysis relative to control; type: cell membranes
[2] = target: D(1A) dopamine receptor (Homo sapiens) (UniProt P21728); assay: Displacement of [3H]SCH-23390 from human dopamine D1 receptor expressed in CHO cell membrane assessed as inhibition of radioligand binding at 100 nM incubated for 60 mins by competition binding based scintillation counter analysis relative to control; type: cell membranes
[3] = target: D(2) dopamine receptor (Homo sapiens) (UniProt P14416); assay: Displacement of [3H]7-OH-DPAT from human dopamine D2 receptor expressed in HEK293 cell membrane assessed as inhibition of radioligand binding at 100 nM incubated for 60 mins by competition binding based scintillation counter analysis relative to control; type: cell membranes
[4] = target: Sodium-dependent serotonin transporter (Homo sapiens) (UniProt P31645); assay: Displacement of [3H]-imipramine from human 5-HT transporter expressed in CHO cell membrane assessed as inhibition of radioligand binding at 100 nM incubated for 60 mins by competition binding based scintillation counter analysis relative to control; type: cell membranes
[5] = target: T1, Alpha-1A adrenergic receptor (Homo sapiens) (UniProt P35348); assay: Antagonist activity at human alpha 1A adrenergic receptor expressed in CHO-K1 cells assessed as inhibition of phenylephrine induced […] calcium response at <= 10 uM by whole cell-based assay; type: functional; details: filed as antagonist
T1 sequence (whole entry): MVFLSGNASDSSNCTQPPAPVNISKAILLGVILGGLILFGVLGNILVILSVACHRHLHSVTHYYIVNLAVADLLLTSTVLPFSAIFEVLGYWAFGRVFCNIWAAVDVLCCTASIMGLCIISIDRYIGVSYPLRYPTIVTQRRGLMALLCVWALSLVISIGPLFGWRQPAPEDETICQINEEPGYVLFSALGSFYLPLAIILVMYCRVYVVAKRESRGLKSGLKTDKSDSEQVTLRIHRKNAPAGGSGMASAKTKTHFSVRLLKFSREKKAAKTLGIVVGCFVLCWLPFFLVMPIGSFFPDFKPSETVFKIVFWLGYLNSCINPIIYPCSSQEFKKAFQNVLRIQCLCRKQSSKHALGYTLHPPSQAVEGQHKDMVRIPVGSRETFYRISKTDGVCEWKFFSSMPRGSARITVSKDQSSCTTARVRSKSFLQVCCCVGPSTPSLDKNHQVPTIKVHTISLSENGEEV

[6] = target: Sodium-dependent serotonin transporter (Homo sapiens) (UniProt P31645); assay: Displacement of [3H]-imipramine from human 5-HT transporter expressed in CHO cell membrane assessed as inhibition of radioligand binding at 200 nM incubated for 60 mins by competition binding based scintillation counter analysis relative to control; type: cell membranes
Mus musculus [7] = assay: Analgesic activity in thermal stimulated CD-1 mouse assessed as increase in latency to pain response at 5 mg/kg,SC administration measured after 30 mins by tail flick assay; type: functional, organism-based
Mus musculus [8] = assay: Analgesic activity in naloxone induced CD-1 mouse assessed as increase in latency to pain response at 5 mg/kg,po administration measured after 30 mins by tail flick assay; type: functional, organism-based
Mus musculus [9] = assay: Analgesic activity against formalin-induced inflammatory pain C57Bl/6 mouse model assessed as reduction in licking response at 5 mg/kg,SC pretreated for 30 min followed by formalin challenge and measured after 30 mins; type: functional, organism-based; details: time 60.0 min

Chain of Sodium-dependent serotonin transporter (Homo sapiens) (P31645 whole entry, looked up): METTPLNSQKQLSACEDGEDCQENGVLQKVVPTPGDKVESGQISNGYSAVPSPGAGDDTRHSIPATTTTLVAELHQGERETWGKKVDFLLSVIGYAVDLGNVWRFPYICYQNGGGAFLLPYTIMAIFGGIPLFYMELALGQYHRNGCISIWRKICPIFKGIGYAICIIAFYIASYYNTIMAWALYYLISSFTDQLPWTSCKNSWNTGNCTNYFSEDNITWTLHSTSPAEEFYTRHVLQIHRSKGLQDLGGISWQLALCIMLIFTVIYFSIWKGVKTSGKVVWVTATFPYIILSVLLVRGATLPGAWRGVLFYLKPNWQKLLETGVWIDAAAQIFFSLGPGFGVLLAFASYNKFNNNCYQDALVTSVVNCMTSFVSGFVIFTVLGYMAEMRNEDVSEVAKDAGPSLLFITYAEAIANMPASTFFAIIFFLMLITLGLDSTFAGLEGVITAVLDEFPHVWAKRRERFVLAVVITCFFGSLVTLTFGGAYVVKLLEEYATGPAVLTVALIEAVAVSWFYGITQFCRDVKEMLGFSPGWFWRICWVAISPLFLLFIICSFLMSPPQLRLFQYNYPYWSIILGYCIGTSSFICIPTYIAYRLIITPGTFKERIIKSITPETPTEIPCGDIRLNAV
Chain of D(1A) dopamine receptor (Homo sapiens) (P21728 whole entry): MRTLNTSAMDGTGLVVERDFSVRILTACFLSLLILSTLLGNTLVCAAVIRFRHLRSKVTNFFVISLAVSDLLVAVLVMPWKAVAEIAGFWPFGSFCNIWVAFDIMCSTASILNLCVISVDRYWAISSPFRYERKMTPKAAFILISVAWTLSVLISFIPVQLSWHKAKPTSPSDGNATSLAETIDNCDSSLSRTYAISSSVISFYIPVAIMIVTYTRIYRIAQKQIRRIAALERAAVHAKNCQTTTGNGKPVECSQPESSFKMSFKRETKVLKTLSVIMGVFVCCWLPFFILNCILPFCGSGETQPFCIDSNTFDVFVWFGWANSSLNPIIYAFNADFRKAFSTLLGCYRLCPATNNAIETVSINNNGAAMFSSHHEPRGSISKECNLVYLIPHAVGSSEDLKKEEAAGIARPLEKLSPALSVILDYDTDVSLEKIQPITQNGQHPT
Chain of 5-hydroxytryptamine receptor 2A (Homo sapiens) (P28223 whole entry): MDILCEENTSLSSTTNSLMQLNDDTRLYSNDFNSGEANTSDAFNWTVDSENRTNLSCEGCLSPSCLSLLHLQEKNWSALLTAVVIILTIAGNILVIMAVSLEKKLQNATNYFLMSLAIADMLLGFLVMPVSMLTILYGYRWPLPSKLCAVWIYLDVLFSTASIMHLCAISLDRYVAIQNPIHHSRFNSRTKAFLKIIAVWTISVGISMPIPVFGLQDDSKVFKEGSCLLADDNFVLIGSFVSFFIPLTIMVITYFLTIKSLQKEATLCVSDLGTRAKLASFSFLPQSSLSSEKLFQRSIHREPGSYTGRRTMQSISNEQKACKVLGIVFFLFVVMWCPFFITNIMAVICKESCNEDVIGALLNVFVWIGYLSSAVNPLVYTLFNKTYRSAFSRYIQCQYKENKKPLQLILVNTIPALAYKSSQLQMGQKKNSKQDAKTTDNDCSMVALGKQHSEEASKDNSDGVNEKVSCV
Chain of D(2) dopamine receptor (Homo sapiens) (P14416 whole entry): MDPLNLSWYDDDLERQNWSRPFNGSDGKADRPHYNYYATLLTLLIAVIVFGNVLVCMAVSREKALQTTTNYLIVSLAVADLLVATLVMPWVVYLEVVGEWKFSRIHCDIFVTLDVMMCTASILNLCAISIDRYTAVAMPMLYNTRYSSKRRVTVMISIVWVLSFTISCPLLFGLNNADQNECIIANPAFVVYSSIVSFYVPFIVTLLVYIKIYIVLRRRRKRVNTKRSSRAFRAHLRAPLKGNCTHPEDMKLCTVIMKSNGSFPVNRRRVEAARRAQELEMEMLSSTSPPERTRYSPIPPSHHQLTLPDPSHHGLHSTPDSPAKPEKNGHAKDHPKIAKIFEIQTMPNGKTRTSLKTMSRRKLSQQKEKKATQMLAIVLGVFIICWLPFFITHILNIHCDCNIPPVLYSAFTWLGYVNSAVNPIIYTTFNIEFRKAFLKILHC

Row | SMILES | inhibition [2] | inhibition [4] | further results
1 | COc1ccc(OCCCN2CC[C@H]3[C@@H](C2)c2cccc4c2N3CC(=O)N4)cc1 | inactive | – | inhibition [1]: inactive
2 | NC(=O)c1cc(F)ccc1OCCCN1CC[C@H]2[C@@H](C1)c1cccc3c1N2CC(=O)N3 | inactive | – | inhibition [3]: inactive
3 | O=C1CN2c3c(cccc3[C@@H]3CN(CCCO)CC[C@@H]32)N1 | inactive | inactive | inhibition [3]: inactive
4 | O=C1CN2c3c(cccc3[C@@H]3CN(CCCOc4ccc5c(c4)OCO5)CC[C@@H]32)N1 | inactive | – | inhibition [1]: inactive
5 | O=C1CN2c3c(cccc3[C@@H]3CN(CCOc4ccc(F)cc4)CC[C@@H]32)N1 | – | inactive | –
6 | O=C1CN2c3c(cccc3[C@@H]3CN(CCCOc4ccc(F)cc4)CC[C@@H]32)N1 | – | – | Activity [5]: Active
7 | O=C1CN2c3c(cccc3[C@@H]3CN(CCCCOc4ccc(F)cc4)CC[C@@H]32)N1 | – | inactive | –
8 | O=C1CN2c3c(cccc3[C@@H]3CN(CCCOc4ccc(Br)cc4)CC[C@@H]32)N1 | inactive | – | –
9 | Cc1cc(F)cc(C)c1OCCCN1CC[C@H]2[C@@H](C1)c1cccc3c1N2CC(=O)N3 | inactive | – | inhibition [3]: inactive
10 | O=C1CN2c3c(cccc3[C@@H]3CN(CCCS(=O)(=O)c4ccc(F)cc4)CC[C@@H]32)N1 | inactive | – | inhibition [3]: inactive; inhibition [6]: inactive
11 | CN1CC[C@]23c4c5ccc(O)c4O[C@H]2[C@@H](O)C=C[C@H]3[C@H]1C5 | – | – | Activity (Mus musculus [7]): Active; Activity (Mus musculus [8]): inactive; Activity (Mus musculus [9]): Active
12 | CCCCN1CC[C@H]2[C@@H](C1)c1cccc3c1N2CC(=O)N3 | inactive | inactive | inhibition [1]: inactive
13 | CC1C(=O)Nc2cccc3c2N1[C@H]1CCN(CCCOc2ccc(F)cc2)C[C@@H]31 (stereo partly specified) | – | inactive | –
14 | O=C1CN2c3c(cccc3[C@@H]3CN(CCCOc4ccc(O)cc4)CC[C@@H]32)N1 | inactive | – | –
